Test system: phenol heterosidase activity of the enzymatic preparation
Assay: Inhibition of the phenol heterosidase activity by phenol compounds
Type: biochemical
Conditions: concentration 1 g/l
Method: The measurement of phenol heterosidase enzymatic activity PeH is based on the release of carboxylic functions which lower the pH of the reaction medium. 9 mg of an aqueous extract of green oak are added, in a test tube, to 9 ml of a 0.1 M NaCl solution, pH 4.5, containing 1% of enzymatic preparation EP. A control tube is prepared under the same conditions, without enzymes. The pH is measured in the two tubes at time 0 (pHc0 for the control and pHe0 for the enzyme) and after 4 hours of incubation at 25° C. (pHc4 and pHe4, respectively). The optimum conditions were established beforehand and there is perfect correlation between the release of glucose and the drop in pH.
The phenol heterosidase activity is calculated from the equation:
PeH=[(pHc0−pHc4)−(pHe0−pHe4)/4]×100 (PeH being expressed in 10^−3 units of pH/ml/h)
In general, all the heteroside substrates are used by the enzymatic activities present. Only the condensed tannins from grape show inhibition of the phenol heterosidase activity.

PeH in presence of phenol compound: 100 10^−3 pH/ml/h
SMILES: O=C1OCC2OC(=O)c3cc(O)c(O)c(O)c3-c3c(O)c(O)c(O)c4c3C(=O)OC(C2OC(=O)c2cc(O)c(O)c(O)c2-c2c1cc(O)c(O)c2O)C1OC(=O)c2c-4c(O)c(O)c(O)c2C1O (stereo not shown) [vescalagin, Vescalagin]

— patent US6623953B1, “Enzymatic composition and method for seasoning wood” (ETS. Robert Stiernon S.A., priority 1998, dated 2003)
